According to patent US20170190705A1, “Compositions and Methods for Inhibiting BMP” (THE BRIGHAM AND WOMAN'S HOSPITAL, INC., priority 2014, published 2017):

Columns and labels:
Format in all cases: biochemical
MAPK3 = MAPK3 (Homo sapiens, UniProt P27361); assay: Kinome profiling MAPK3; settings: read-out: Inhibitory activity MAPK3; for inhibition at 0.1 µM: 100 nM
Procedure: (§1) . The kinome-wide selectivity was determined following the methods previously reported by Mohedas et al., ACS Chem Biol 2013, 8, 1291-1302 and Sanvitale et al., PLoS One 2013, 8, e62721.

PIM-2 = PIM-2 (Homo sapiens, UniProt Q9P1W9); assay: Kinome profiling PIM-2; settings: read-out: Inhibitory activity PIM-2; for inhibition at 0.1 µM: 100 nM
Chain of PIM-2 (Q9P1W9 whole entry): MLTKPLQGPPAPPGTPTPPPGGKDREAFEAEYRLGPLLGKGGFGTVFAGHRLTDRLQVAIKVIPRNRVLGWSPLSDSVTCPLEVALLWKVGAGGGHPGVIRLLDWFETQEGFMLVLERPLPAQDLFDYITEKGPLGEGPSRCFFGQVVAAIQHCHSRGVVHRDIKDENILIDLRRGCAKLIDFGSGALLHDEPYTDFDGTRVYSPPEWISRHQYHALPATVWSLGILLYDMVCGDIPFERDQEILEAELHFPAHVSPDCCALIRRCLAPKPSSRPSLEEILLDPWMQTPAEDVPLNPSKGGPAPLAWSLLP
Procedure: as §1

MUSK = target: T1, MUSK (Homo sapiens, UniProt O15146); assay: Kinome profiling MUSK; settings: read-out: Inhibitory activity MUSK; for inhibition at 0.1 µM: 100 nM
T1 sequence (O15146 24-869): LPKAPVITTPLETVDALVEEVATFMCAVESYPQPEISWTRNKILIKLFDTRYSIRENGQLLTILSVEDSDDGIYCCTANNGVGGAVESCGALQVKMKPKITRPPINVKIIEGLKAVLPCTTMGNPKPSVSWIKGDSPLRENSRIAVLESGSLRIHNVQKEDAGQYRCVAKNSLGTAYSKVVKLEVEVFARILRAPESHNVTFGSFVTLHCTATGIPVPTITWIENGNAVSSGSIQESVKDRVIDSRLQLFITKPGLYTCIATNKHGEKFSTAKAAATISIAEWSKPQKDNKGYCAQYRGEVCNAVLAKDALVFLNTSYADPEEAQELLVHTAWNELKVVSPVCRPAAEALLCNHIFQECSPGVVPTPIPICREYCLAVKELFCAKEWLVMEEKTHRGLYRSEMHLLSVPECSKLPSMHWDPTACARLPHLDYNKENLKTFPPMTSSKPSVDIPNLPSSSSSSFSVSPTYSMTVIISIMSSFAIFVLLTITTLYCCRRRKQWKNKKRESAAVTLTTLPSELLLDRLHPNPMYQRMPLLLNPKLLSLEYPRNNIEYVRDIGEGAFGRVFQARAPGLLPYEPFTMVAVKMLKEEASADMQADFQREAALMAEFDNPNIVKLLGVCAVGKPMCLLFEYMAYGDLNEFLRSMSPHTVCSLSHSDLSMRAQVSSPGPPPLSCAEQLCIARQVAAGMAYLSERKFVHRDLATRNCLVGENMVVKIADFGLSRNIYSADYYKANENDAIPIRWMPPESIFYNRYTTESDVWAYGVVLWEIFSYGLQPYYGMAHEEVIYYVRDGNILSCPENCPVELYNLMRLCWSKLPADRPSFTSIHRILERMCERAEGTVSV
Procedure: as §1

PKC-η = PKC-η (Homo sapiens, UniProt P24723); assay: Kinome profiling PKC-η; settings: read-out: Inhibitory activity PKC-η; for inhibition at 0.1 µM: 100 nM
Chain of PKC-η (P24723 whole entry): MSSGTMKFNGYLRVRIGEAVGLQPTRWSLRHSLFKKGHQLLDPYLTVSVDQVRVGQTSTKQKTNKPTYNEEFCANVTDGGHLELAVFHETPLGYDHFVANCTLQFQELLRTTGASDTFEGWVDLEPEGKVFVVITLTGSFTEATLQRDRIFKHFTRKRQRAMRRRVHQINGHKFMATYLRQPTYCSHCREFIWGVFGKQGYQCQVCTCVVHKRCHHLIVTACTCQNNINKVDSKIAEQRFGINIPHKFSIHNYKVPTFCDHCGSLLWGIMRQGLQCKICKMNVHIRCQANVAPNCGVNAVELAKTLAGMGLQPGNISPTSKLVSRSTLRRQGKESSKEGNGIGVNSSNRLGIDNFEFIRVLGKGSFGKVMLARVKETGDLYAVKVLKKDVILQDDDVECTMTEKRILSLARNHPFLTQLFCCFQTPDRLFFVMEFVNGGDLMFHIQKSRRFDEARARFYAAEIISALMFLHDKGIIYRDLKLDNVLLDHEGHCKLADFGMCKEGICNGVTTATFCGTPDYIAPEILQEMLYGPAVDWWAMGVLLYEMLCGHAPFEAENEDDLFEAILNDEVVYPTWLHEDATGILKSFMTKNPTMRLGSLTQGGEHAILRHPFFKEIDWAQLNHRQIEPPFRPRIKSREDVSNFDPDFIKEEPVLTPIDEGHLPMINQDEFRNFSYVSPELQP
Procedure: as §1

FLT-1 = FLT-1 (Homo sapiens, UniProt P17948); assay: Kinome profiling FLT-1; settings: read-out: Inhibitory activity FLT-1; for inhibition at 0.1 µM: 100 nM
Procedure: as §1

PKC-θ = PKC-θ (Homo sapiens, UniProt Q04759); assay: Kinome profiling PKC-θ; settings: read-out: Inhibitory activity PKC-θ; for inhibition at 0.1 µM: 100 nM
Chain of PKC-θ (Q04759 whole entry): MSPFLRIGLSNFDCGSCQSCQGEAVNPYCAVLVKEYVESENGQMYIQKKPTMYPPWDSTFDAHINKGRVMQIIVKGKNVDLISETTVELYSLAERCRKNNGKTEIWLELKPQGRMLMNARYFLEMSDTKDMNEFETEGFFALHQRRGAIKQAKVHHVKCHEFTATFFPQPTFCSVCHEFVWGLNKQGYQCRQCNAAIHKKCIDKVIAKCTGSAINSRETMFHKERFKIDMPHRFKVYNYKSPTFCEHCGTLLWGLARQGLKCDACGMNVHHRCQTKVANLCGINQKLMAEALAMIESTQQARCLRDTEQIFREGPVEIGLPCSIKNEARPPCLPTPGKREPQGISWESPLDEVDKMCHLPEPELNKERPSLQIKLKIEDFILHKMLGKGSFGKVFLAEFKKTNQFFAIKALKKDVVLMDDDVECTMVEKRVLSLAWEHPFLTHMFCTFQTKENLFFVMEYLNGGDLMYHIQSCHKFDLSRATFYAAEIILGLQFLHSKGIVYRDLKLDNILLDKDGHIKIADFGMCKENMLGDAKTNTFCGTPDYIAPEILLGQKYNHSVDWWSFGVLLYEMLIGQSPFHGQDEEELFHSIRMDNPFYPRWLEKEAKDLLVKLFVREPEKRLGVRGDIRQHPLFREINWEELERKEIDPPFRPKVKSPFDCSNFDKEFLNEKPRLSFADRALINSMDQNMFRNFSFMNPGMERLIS
Procedure: as §1

TNK2 = TNK2 (Homo sapiens, UniProt Q07912); assay: Kinome profiling TNK2; settings: read-out: Inhibitory activity TNK2; for inhibition at 0.1 µM: 100 nM
Chain of TNK2 (Q07912 whole entry): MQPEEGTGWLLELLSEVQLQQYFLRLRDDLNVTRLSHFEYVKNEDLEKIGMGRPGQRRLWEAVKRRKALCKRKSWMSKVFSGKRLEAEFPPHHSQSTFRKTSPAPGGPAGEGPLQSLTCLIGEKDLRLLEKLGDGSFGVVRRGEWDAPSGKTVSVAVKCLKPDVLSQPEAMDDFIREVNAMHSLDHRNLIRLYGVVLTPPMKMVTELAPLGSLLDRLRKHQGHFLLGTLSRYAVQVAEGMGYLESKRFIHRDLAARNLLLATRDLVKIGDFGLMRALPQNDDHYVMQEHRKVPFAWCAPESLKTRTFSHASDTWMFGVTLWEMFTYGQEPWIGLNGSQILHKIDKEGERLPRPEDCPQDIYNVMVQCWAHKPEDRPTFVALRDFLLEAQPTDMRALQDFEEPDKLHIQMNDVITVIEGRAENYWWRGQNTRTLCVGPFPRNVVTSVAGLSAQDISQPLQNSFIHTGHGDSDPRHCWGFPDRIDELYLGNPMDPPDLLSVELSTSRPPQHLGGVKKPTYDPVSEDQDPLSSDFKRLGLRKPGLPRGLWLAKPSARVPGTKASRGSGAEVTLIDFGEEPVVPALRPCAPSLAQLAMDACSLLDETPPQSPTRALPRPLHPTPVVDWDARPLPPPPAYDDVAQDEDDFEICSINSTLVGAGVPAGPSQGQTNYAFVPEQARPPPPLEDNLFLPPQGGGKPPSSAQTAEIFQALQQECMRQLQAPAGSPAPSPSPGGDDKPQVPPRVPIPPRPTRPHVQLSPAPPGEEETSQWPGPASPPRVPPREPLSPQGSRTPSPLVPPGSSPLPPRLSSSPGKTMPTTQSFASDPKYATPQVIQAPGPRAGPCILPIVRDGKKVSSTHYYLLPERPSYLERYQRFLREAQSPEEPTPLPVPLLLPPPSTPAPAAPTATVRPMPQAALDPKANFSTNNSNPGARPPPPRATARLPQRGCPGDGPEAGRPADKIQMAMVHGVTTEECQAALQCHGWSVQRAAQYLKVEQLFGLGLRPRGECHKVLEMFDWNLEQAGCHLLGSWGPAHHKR
Procedure: as §1

ROCK1 = ROCK1 (Homo sapiens, UniProt Q13464); assay: Kinome profiling ROCK1; settings: read-out: Inhibitory activity ROCK1; for inhibition at 0.1 µM: 100 nM
Procedure: as §1

DCAMKL2 = target: T2, DCAMKL2 (Homo sapiens, UniProt Q8N568); assay: Kinome profiling DCAMKL2; settings: read-out: Inhibitory activity DCAMKL2; for inhibition at 0.1 µM: 100 nM
T2 sequence (Q8N568 1-766): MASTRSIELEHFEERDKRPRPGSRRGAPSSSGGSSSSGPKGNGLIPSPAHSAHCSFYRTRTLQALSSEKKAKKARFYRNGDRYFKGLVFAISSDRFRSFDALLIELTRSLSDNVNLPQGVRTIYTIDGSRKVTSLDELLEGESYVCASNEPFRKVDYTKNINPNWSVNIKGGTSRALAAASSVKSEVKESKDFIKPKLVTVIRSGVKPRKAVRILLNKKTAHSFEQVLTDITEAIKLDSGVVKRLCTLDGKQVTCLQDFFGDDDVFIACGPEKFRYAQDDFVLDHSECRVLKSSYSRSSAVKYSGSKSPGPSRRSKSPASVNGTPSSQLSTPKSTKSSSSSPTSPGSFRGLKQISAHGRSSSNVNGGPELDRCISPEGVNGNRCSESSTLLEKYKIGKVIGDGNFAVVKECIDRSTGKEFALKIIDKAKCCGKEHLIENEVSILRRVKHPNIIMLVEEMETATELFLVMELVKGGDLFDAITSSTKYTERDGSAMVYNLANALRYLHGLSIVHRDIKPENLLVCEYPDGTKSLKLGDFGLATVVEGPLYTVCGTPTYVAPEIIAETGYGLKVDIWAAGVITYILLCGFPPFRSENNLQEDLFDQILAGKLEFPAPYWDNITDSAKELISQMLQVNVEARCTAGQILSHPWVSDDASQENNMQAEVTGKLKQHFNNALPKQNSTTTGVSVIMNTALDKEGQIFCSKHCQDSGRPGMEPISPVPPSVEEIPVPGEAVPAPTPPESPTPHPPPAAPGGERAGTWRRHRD
Procedure: as §1

BRAF = BRAF (Homo sapiens, UniProt P15056); assay: Kinome profiling BRAF; settings: read-out: Inhibitory activity BRAF; for inhibition at 0.1 µM: 100 nM
Chain of BRAF (P15056 whole entry): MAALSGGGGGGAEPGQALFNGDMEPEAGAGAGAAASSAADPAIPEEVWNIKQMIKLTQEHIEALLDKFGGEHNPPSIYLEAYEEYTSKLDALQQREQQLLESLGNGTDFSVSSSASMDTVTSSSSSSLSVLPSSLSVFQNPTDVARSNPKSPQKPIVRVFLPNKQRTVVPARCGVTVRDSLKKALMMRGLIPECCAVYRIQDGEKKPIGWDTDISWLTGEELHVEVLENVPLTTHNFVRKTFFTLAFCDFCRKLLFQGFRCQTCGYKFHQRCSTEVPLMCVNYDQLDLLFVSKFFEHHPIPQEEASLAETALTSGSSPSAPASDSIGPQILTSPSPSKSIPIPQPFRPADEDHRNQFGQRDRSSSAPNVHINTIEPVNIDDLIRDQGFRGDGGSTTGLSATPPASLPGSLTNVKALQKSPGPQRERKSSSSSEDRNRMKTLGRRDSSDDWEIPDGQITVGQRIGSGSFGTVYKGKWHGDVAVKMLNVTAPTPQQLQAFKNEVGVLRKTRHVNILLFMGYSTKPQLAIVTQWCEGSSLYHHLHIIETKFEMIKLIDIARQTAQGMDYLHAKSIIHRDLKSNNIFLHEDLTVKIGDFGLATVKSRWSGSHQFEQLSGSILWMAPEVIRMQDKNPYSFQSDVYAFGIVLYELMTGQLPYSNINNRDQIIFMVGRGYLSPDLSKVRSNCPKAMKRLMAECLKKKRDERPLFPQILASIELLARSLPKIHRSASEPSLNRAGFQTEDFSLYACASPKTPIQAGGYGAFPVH
Procedure: as §1

PAR-1Bα = PAR-1Bα (Homo sapiens, UniProt Q7KZI7); assay: Kinome profiling PAR-1Bα; settings: read-out: Inhibitory activity PAR-1Bα; for inhibition at 0.1 µM: 100 nM
Chain of PAR-1Bα (Q7KZI7 1-725 isoform Q7KZI7-4): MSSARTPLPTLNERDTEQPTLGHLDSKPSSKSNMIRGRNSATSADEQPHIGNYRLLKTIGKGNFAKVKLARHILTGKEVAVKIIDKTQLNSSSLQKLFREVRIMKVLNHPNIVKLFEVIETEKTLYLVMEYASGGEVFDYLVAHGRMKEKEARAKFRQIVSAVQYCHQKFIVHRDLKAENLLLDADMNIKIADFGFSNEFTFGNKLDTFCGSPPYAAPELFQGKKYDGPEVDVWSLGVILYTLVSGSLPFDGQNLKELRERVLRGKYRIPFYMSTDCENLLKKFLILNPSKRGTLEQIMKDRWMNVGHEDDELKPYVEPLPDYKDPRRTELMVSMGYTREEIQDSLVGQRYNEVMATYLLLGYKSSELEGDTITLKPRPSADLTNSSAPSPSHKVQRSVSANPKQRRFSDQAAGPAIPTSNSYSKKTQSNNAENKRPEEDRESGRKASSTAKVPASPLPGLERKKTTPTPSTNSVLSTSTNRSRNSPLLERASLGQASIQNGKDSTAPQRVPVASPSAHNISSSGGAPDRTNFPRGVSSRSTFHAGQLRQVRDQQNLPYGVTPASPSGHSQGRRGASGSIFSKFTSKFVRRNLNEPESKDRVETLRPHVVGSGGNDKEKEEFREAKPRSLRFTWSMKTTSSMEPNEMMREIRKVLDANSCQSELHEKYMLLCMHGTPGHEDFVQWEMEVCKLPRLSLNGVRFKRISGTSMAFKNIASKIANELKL
Procedure: as §1

Chain of MAPK3 (P27361 whole entry): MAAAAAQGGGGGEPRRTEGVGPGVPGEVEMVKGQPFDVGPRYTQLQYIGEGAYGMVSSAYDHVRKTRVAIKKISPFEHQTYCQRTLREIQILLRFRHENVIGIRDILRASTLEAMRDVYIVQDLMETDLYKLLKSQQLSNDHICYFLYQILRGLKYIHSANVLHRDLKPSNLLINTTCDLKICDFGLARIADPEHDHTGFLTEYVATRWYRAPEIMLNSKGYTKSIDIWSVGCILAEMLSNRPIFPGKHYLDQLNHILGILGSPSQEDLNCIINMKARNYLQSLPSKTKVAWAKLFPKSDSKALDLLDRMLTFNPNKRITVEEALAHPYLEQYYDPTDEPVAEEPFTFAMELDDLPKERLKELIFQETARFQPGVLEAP

| Compound | inhibition at 0.1 µM (MAPK3) | inhibition at 1 µM (MAPK3) | inhibition at 0.1 µM (PIM-2) | inhibition at 1 µM (PIM-2) | inhibition at 0.1 µM (MUSK) | inhibition at 1 µM (MUSK) | inhibition at 0.1 µM (PKC-η) | inhibition at 1 µM (PKC-η) | inhibition at 0.1 µM (FLT-1) | inhibition at 1 µM (FLT-1) | inhibition at 0.1 µM (PKC-θ) | inhibition at 1 µM (PKC-θ) | inhibition at 0.1 µM (TNK2) | inhibition at 1 µM (TNK2) | inhibition at 0.1 µM (ROCK1) | inhibition at 1 µM (ROCK1) | inhibition at 0.1 µM (DCAMKL2) | inhibition at 1 µM (DCAMKL2) | inhibition at 0.1 µM (BRAF) | inhibition at 1 µM (BRAF) | also measured |
| --- | --- | --- | --- | --- | --- | --- | --- | --- | --- | --- | --- | --- | --- | --- | --- | --- | --- | --- | --- | --- | --- |
| COc1cc(-c2cc(-c3ccc(N4CCNCC4)cc3)cnc2C)cc(OC)c1OC [Compound 10, 1-(4-(6-methyl-5-(3,4,5-trimethoxyphenyl)pyridin-3-yl)phenyl)piperazine] | 1% | 2% | 0% | 0% | 2% | 2% | 5% | 18% | 8% | 16% | 1% | 2% | 6% | 35% | 1% | 0% | 1% | 0% | 0% | 1% | inhibition at 0.1 µM (PAR-1Bα): 2%; inhibition at 1 µM (PAR-1Bα): 4% |
| COc1cc(-c2cc(-c3ccc(N4CCNCC4)cc3)cnc2N)cc(OC)c1OC [Compound 15, 5-(4-(piperazin-1-yl)phenyl)-3-(3,4,5-trimethoxyphenyl)pyridin-2-amine] | 1% | 0% | 0% | 0% | 1% | 5% | 3% | -1% | 3% | 5% | 1% | 1% | 6% | 44% | 0% | 0% | -1% | 3% | 8% | 27% | inhibition at 0.1 µM (PAR-1Bα): 1%; inhibition at 1 µM (PAR-1Bα): 19% |
